For orientation: IC50 means the point on the concentration scale where inhibition reaches its midpoint. The low end stands for greater potency, the high end for weaker potency.

T1 sequence (P41594 21-942 isoform P41594-3 limits assumed): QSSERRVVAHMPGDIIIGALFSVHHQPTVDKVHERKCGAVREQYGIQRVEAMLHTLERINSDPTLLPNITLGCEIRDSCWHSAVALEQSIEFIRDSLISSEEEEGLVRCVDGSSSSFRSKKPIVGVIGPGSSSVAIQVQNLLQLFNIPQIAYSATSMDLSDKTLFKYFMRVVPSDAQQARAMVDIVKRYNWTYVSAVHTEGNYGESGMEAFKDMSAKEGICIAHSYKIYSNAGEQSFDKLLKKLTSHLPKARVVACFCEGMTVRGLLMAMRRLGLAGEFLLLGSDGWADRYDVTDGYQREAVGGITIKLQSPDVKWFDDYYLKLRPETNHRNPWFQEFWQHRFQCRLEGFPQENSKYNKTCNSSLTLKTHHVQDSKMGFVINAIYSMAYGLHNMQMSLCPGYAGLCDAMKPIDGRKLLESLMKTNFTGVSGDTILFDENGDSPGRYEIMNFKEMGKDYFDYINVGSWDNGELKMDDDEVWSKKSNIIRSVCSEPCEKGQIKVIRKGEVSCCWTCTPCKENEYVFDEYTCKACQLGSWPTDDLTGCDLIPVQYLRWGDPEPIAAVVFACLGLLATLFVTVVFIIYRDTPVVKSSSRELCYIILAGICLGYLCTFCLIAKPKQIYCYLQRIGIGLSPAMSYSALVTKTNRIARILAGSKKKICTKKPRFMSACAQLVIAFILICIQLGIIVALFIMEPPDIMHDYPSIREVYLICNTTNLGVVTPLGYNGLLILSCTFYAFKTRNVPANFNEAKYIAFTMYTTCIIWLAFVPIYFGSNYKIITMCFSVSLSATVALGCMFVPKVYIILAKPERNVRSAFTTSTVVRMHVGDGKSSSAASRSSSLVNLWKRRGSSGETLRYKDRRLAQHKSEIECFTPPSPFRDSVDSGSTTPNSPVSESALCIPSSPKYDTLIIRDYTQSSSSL

The assay concerns the target T1, human mGluR5d (Homo sapiens, UniProt P41594).
T1 construct: expressed in transfected cells
Put plainly: IP3 assay (phosphatidylinositol turnover, functional mGluR5 antagonism). It is filed as cell-based. Conditions: GHEK cells stably expressing human mGluR5d; glutamate (80 μM) or DHPG (30 μM) as agonist. An excerpt: Biological Evaluation Functional Assessment of mGluR5 Antagonism in Cell Lines Expressing mGluR5D
The properties of the compounds of the invention can be analyzed using standard assays for pharmacological activity. Examples of glutamate receptor assays are well known in the art as described in for example Aramori et al., Neuron 8:757 (1992), Tanabe et al., Neuron 8:169 (1992), Miller et al., J. Neuroscience 15: 6103 (1995), Balazs, et al., J. Neurochemistry 69:151 (1997). The methodology described in these publications is incorporated herein by reference. Conveniently, the compounds of the invention can be studied by means of an assay (FLIPR) that measures the mobilization of intracellular calcium, [Ca^2+]i in cells expressing mGluR5 or another assay (IP3) that measures inositol phosphate turnover.
An additional functional assay for mGluR5d is described in WO97/05252 and is based on phosphatidylinositol turnover. Receptor activation stimulates phospholipase C activity and leads to increased formation of inositol 1,4,5,triphosphate (IP3).
GHEK stably expressing the human mGluR5d are seeded onto 24 well poly-L-lysine coated plates at 40×10^4 cells/well in media containing 1 μCi/well [3H] myo-inositol. Cells were incubated overnight (16 h), then washed three times and incubated for 1 h at 37° C. in HEPES buffered saline (146 mM NaCl, 4.2 mM KCl, 0.5 mM MgCl2, 0.1% glucose, 20 mM HEPES, pH 7.4) supplemented with 1 unit/ml glutamate pyruvate transaminase and 2 mM pyruvate. Cells are washed once in HEPES buffered saline and pre-incubated for 10 min in HEPES buffered saline containing 10 mM LiCl. Compounds are incubated in duplicate at 37° C. for 15 min, then either glutamate (80 μM) or DHPG (30 μM) is added and incubated for an additional 30 min. The reaction is terminated by the addition of 0.5 ml perchloric acid (5%) on ice, with incubation at 4° C. for at least 30 min. Samples are collected in 15 ml polyproplylene tubes and inositol phosphates are separated using ion-exchange resin (Dowex AG1-X8 formate form, 200-400 mesh, BIORAD) columns. Inositol phosphate separation was done by first eluting glycero phosphatidyl inositol with 8 ml 30 mM ammonium formate. Next, total inositol phosphates is eluted with 8 ml 700 mM ammonium formate/100 mM formic acid and collected in scintillation vials. This eluate is then mixed with 8 ml of scintillant and [3H] inositol incorporation is determined by scintillation counting. The dpm counts from the duplicate samples are plotted and IC50 determinations are generated using a linear least squares fitting program.
Turning to `Cc1cccc(-n2nnc([C@@H](C)Oc3nnc(-c4ncccn4)n3C)n2)c1` [Example 10.1, 2-(4-methyl-5-{(1R)-1-[2-(3-methylphenyl)-2H-tetrazol-5-yl]ethoxy}-4H-1,2,4-triazol-3-yl)pyrimidine], the concentration for half-maximal inhibition (IC50) amounted to 36 nM.

On to `Cc1cccc(-n2nnc([C@@H](C)Oc3nnc(-c4cncnc4)n3C)n2)c1` [Example 10.2, 5-(4-methyl-5-{(1R)-1-[2-(3-methylphenyl)-2H-tetrazol-5-yl]ethoxy}-4H-1,2,4-triazol-3-yl)pyrimidine], for which the IC50 was 25 nM.

`Cc1cccc(-n2nnc([C@@H](C)Oc3nnc(-c4cnc(C)cn4)n3C)n2)c1` [Example 10.3, 2-methyl-5-(4-methyl-5-{(1R)-1-[2-(3-methylphenyl)-2H-tetrazol-5-yl]ethoxy}-4H-1,2,4-triazol-3-yl)pyrazine]: the concentration for half-maximal inhibition (IC50) was 22 nM.

`Cc1cccc(-n2nnc([C@@H](C)Oc3nnc(-c4ccnc(C)c4)n3C)n2)c1` [Example 10.4, 2-methyl-4-(4-methyl-5-{(1R)-1-[2-(3-methylphenyl)-2H-tetrazol-5-yl]ethoxy}-4H-1,2,4-triazol-3-yl)pyridine] had an IC50 of 20 nM.

`Cc1cccc(-n2nnc([C@@H](C)Oc3nnc(-c4cccnc4)n3C)n2)c1` [Example 10.5] had a half-inhibitory concentration (IC50) of 23 nM.

For the origin of these results see patent US7960422B2, “Pharmaceutically active compounds containing tetrazolyl and triazolyl rings” (AstraZeneca AB, priority 2007, dated 2011).
